These results are taken from PubChem BioAssay (NCI).

The structures appear in SMILES notation.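 Cultured in 96-well plates, cells were exposed to test compound for 48 hours across five concentrations. Definition used: TGI = concentration required for complete inhibition of growth.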 Where a SMILES comes first, the peptide text is derived from it. The star is where a group is joined. Boc = CC(C)(C)OC(=O)*; tBu = CC(C)(C)* Where only a bound is given, the exact number is not on record here.

Assay in all cases: inhibition of tumour cell growth, NCI panel, 48 h
The subject of test [1] is SK-MEL-2 melanoma.
Test [2] has as its system HS 578T breast.
Test [3] relates to PC-3 prostate.
Test [4] deals with LOX IMVI melanoma.
Test [5] concerns HOP-92 NSCLC.
Test [6] concerns UACC-62 melanoma.
The subject of test [7] is CCRF-CEM leukemia.
Test [8] concerns NCI-H522 lung.

Take `CC(C)CCCC(C)[C@H]1CCC2[C@@H]3CCC4Cc5nc6c(nc5C[C@]4(C)C3CC[C@@]21C)CC1CC[C@@H]2C(CC[C@@]3(C)C2CC[C@@H]3O)[C@@]1(C)C6` (some centres undefined): the TGI in test [1], in test [2], in test [3], in test [4], in test [5] and in test [6] was greater than 100 µM in each case. This compound registered a TGI in test [7] greater than 100 µM.

Turning to `CC(=O)c1sc2c(c1O)c(=O)n(-c1ccccc1)c(=S)n2-c1ccccc1`, the TGI in test [1], in test [2], in test [4], in test [8], in test [5] and in test [6] was greater than 100 µM each time.

For the compound `Cc1ccc(C=C(C(=O)O)C(=O)O)o1`, the TGI in test [1], in test [2], in test [3], in test [4], in test [8] and in test [6] was greater than 100 µM each time. For the same compound, the TGI in test [7] is greater than 100 µM.

Turning to `FC(F)(F)c1cnc(N/N=C(/c2ccccc2)c2ccccn2)c(Cl)c1`, the TGI in test [1] amounted to 24.4 µM; in test [2] it was 26.9 µM; in test [3], 24.6 µM; in test [8], 4.74 µM; in test [5] it was 23.2 µM; in test [6], 23.1 µM. Also, the TGI in test [7] worked out at 17.6 µM.

Take `CC1(CCCCO)C=CC(S(=O)(=O)c2ccccc2)CC1` (centres undefined): the TGI came to 23.1 µM in test [1]; 15.1 µM in test [3]; 3.65 µM in test [4]; 10.4 µM in test [8]; 7.04 µM in test [5]; 18.3 µM in test [6]. For the same compound, in test [7], the TGI is 11.2 µM.

Regarding `O=C1c2ccccc2-n2c1nc1ccc(Cl)cc1c2=O`, the TGI is greater than 100 µM in test [1]; greater than 100 µM in test [3]; greater than 100 µM in test [4]; greater than 100 µM in test [5]; 92.7 µM in test [6]; 13.8 µM in test [7].

In the case of `Cc1cc(C)nc(NC(=S)Nc2ccc(Cl)cc2)c1`, the TGI in test [1] was greater than 100 µM; in test [2], greater than 100 µM; in test [3], greater than 100 µM; in test [4] it was greater than 100 µM; in test [8], 39.1 µM; in test [6] it was greater than 100 µM. Besides, the TGI in test [7] is greater than 100 µM.

Take `CC1=C2CC(C)(C)CC(=O)C2(C)CCC1=O` (centres undefined): the TGI in test [1], in test [2], in test [3], in test [4], in test [8] and in test [6] was greater than 100 µM in each case. Moreover, the TGI in test [7] is greater than 100 µM.

With `O=C1CC(=O)NC(=NN2C(=O)/C(=C/c3ccc(Cl)cc3)N=C2c2ccccc2)N1`, the TGI in test [1] stood at 31.1 µM; in test [2], 30.6 µM; in test [3], 28.2 µM; in test [8], 23.5 µM; in test [5], 26.1 µM; in test [6] it was 25.6 µM. In test [7], this compound showed a TGI of 24.8 µM.

Consider `Nc1c(C(=O)c2ccccc2)nnc2ccccc12`, for which the TGI was 38.3 µM in test [1]; 59.6 µM in test [3]; greater than 100 µM in test [4]; 48.7 µM in test [5]; 45 µM in test [6].

`Cn1cnnc1SC(F)(F)c1nc2ccccc2o1`: the TGI in test [1], in test [3], in test [8], in test [5], in test [6] and in test [7] was greater than 100 µM each time.

`CC1=CC(=O)c2c(O)c3c(c(O)c2C1=O)C1C(O)C(C3=O)C23C(=O)c4c(O)c(C)cc(O)c4C(O)=C2C(=O)CC(O)C13` (centres undefined): the TGI in test [1] is 3.79 µM; in test [2], 3.44 µM; in test [3] it was 10.2 µM; in test [4] it was 4.7 µM; in test [6], 3.24 µM; in test [7] it was greater than 100 µM.

On to `CC(=O)Nc1sccc1S(=O)(=O)c1ccc(Cl)cc1`, for which the TGI in test [1], in test [2], in test [3], in test [8], in test [5] and in test [6] was greater than 100 µM each time. The TGI in test [7] is greater than 100 µM.

In the case of `N#C[C@H](C(=O)c1ccccc1F)c1nc2ccccc2[nH]1`, the TGI in test [1], in test [2], in test [3], in test [4], in test [5] and in test [6] was greater than 100 µM each time. In test [7], the TGI was greater than 100 µM.

Consider `CCCCC1Cc2cc(OC)ccc2-c2n1c1cc(OC)ccc1[n+]2C` (centres undefined) (tested in a mixture with another compound), for which the TGI amounted to 13 µM in test [1]; 30.4 µM in test [3]; 14.3 µM in test [4]; 6.85 µM in test [8]; 7.02 µM in test [5]; 3.03 µM in test [6]. Further, the TGI in test [7] amounted to 25.3 µM.

As to `O=C(O)Cc1ccc(Oc2nc3ccccc3nc2-c2ccccc2)cc1`, the TGI was greater than 100 µM in test [1]; greater than 100 µM in test [2]; greater than 100 µM in test [3]; greater than 100 µM in test [4]; greater than 100 µM in test [8]; 75.7 µM in test [6]. In test [7], the TGI is greater than 100 µM.

Regarding `CO[C@]12C[C@@H](CNC(=O)c3cc(Br)c[nH]3)O[C@H]1NC(=O)N2`, the TGI in test [1], in test [2], in test [3], in test [8], in test [5] and in test [6] was greater than 100 µM in each case. This compound also showed a TGI in test [7] greater than 100 µM.

With `COC(=O)[C@]1(C)CCCC2(C)C3=C(CCC21)CC1(CC3)SCCS1` (some centres undefined), the TGI in test [2], in test [3], in test [8], in test [5], in test [6] and in test [7] was greater than 10 µM each time.

Turning to `CCOC(=O)[C@@H]1C[C@@H]1c1ccc(O)c(O)c1`, the TGI in test [1] is 68.8 µM; in test [2], greater than 100 µM; in test [3], greater than 100 µM; in test [8], 26.5 µM; in test [5] it was greater than 100 µM; in test [6], 27 µM.

Turning to `CCOP(=O)(/C=C\n1ccc(=O)[nH]c1=O)OCC`, the TGI in test [1], in test [3], in test [4], in test [8], in test [6] and in test [7] was greater than 100 µM throughout.

Take `COC(=O)[C@]1(C)[C@H]2C[C@H]3O[C@H]4[C@H](O)[C@@H](O)OC(CC(O)C(C5=CC(=O)OC5)C(C5=CC(=O)OC5)C(O)CC56CCCCC7[C@@H](C)[C@H](C[C@H]8[C@](C)(C(=O)OC)[C@H](O)CC[C@]78C)O[C@H]([C@@H](O)[C@H](O)O5)[C@H]6O)(CCCCC([C@@H]3C)[C@]2(C)CC[C@@H]1O)[C@H]4O` (some centres undefined): the TGI in test [1] is 0.643 µM; in test [3], 0.449 µM; in test [4], 1.17 µM; in test [8], 0.0558 µM; in test [5] it was 3.92 µM; in test [6] it was 0.779 µM. For the same compound, the TGI in test [7] came out at 0.333 µM.

On to `CON(C)C(=O)C(C)NC(=O)OC(C)(C)C` (centres undefined), for which the TGI in test [2], in test [3], in test [5], in test [6] and in test [7] was greater than 100 µM throughout.

For the compound `CCOP(=O)(/C=C/n1cnc2c(=O)n(C(C)=O)c(N)nc21)OCC`, the TGI in test [1], in test [2], in test [3], in test [4], in test [8] and in test [6] was greater than 100 µM in each case. This compound registered a TGI in test [7] greater than 100 µM.

With `COCCOCCOCCC(=O)NC1CC2CCC1(C)C2(C)C` (centres undefined), the TGI in test [2], in test [3], in test [4], in test [6] and in test [7] was greater than 100 µM throughout.

Take `COc1ccc(/C=N/n2c(Cc3ccccc3)n[nH]c2=O)cc1`: the TGI in test [1] was greater than 100 µM; in test [2], 54.4 µM; in test [3], greater than 100 µM; in test [6], greater than 100 µM; in test [7] it was greater than 100 µM.

As for `C/C(=N\Nc1nc2ccccc2n1C)c1ccc2ccccc2n1`, the TGI in test [1] was greater than 36 µM; in test [2] it was 63.8 µM; in test [4], 16.6 µM; in test [8], 19.6 µM; in test [5] it was 37.8 µM; in test [6], 9.79 µM. Moreover, in test [7], the TGI stood at 1.67 µM.

In the case of `CC(OC(C)(C)C)C(NC(=O)C(N)CCCCNC(=O)OC(C)(C)C)C(=O)NC(Cc1ccccc1)C(=O)O` (centres undefined) (H-Lys(Boc)-Thr(tBu)-Phe-OH; configuration not given here), the TGI in test [1], in test [2], in test [3], in test [4], in test [5] and in test [6] was greater than 100 µM each time. Also, in test [7], the TGI is greater than 100 µM.
